In PubChem BioAssay (NCI):
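Compound exposure: 48 hours, 5 concentrations, 96-well plates. The concentration for 50% growth inhibition is given as GI50. TGI: total growth inhibition.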

Key:
Assay in all cases: DTP human tumour cell line panel, 48 h
CCRF-CEM leukemia = tested on: CCRF-CEM leukemia
MOLT-4 leukemia = tested on: MOLT-4 leukemia
NCI-H23 lung = tested on: NCI-H23 lung
OVCAR-8 ovarian = tested on: OVCAR-8 ovarian
SF-295 CNS = tested on: SF-295 CNS
U251 CNS = tested on: U251 CNS
UACC-257 melanoma = tested on: UACC-257 melanoma
A549 NSCLC = tested on: A549 NSCLC
HT29 colon = tested on: HT29 colon
SK-MEL-5 melanoma = tested on: SK-MEL-5 melanoma

O=C1Nc2ccc(Cl)cc2/C1=C\c1c(Cl)nc2sccn12
TGI (CCRF-CEM leukemia): 62.3 µM | TGI (MOLT-4 leukemia): 51.9 µM | TGI (NCI-H23 lung): > 100 µM | TGI (OVCAR-8 ovarian): > 100 µM | TGI (SF-295 CNS): 25.3 µM | TGI (U251 CNS): > 100 µM | TGI (UACC-257 melanoma): > 100 µM

COC(=O)N1CC2C3C4CC(C(c5ccccc5)=C4c4ccccc4)C3C21 (centres undefined)
TGI (A549 NSCLC): 73.1 µM | TGI (CCRF-CEM leukemia): 43.4 µM | TGI (HT29 colon): 37.7 µM | TGI (MOLT-4 leukemia): 38.6 µM | TGI (NCI-H23 lung): 98.1 µM | TGI (OVCAR-8 ovarian): 35.7 µM | TGI (SF-295 CNS): 32.4 µM | TGI (SK-MEL-5 melanoma): 25.9 µM | TGI (U251 CNS): 27.5 µM | TGI (UACC-257 melanoma): 28.9 µM

Cc1ccc(N(CC(=O)Nc2ccc(S(=O)(=O)N3CCC(N4CCCC4)CC3)cc2)S(=O)(=O)c2ccc(Cl)cc2)cc1
GI50 (A549 NSCLC): 1.78 µM | TGI (A549 NSCLC): 3.52 µM | GI50 (CCRF-CEM leukemia): 1.9 µM | TGI (CCRF-CEM leukemia): 6.35 µM | GI50 (HT29 colon): 1.87 µM | TGI (HT29 colon): 3.68 µM | GI50 (MOLT-4 leukemia): 1.87 µM | TGI (MOLT-4 leukemia): 4.98 µM | GI50 (NCI-H23 lung): 1.8 µM | TGI (NCI-H23 lung): 3.87 µM | GI50 (OVCAR-8 ovarian): 1.86 µM | TGI (OVCAR-8 ovarian): 3.76 µM | GI50 (SF-295 CNS): 1.74 µM | TGI (SF-295 CNS): 3.42 µM | GI50 (SK-MEL-5 melanoma): 1.73 µM | TGI (SK-MEL-5 melanoma): 3.14 µM | GI50 (U251 CNS): 1.56 µM | TGI (U251 CNS): 2.98 µM

CC(=O)NC1=C[C@@H]([C@H]2COC(C)(C)O2)OC1=O
TGI (A549 NSCLC): > 100 µM | TGI (CCRF-CEM leukemia): > 100 µM | TGI (HT29 colon): > 100 µM | TGI (MOLT-4 leukemia): > 100 µM | TGI (NCI-H23 lung): > 100 µM | TGI (OVCAR-8 ovarian): > 100 µM | TGI (SF-295 CNS): > 100 µM | TGI (SK-MEL-5 melanoma): > 100 µM | TGI (U251 CNS): > 100 µM | TGI (UACC-257 melanoma): > 100 µM

O=C(Nc1ccc(-n2ccc3c(NC(=O)c4ccccc4)ncnc32)cc1)Nc1cccc(Cl)c1Cl
GI50 (A549 NSCLC): 0.952 µM | TGI (A549 NSCLC): 2.22 µM | GI50 (CCRF-CEM leukemia): 0.531 µM | TGI (CCRF-CEM leukemia): 3.21 µM | GI50 (HT29 colon): 0.808 µM | TGI (HT29 colon): 2.11 µM | GI50 (MOLT-4 leukemia): 1.71 µM | TGI (MOLT-4 leukemia): > 50 µM | GI50 (NCI-H23 lung): 1.64 µM | TGI (NCI-H23 lung): 11 µM | GI50 (OVCAR-8 ovarian): 1.07 µM | TGI (OVCAR-8 ovarian): 2.6 µM | GI50 (SF-295 CNS): 2.22 µM | TGI (SF-295 CNS): > 50 µM | GI50 (SK-MEL-5 melanoma): 1.35 µM | TGI (SK-MEL-5 melanoma): 9.99 µM | GI50 (U251 CNS): 0.571 µM | TGI (U251 CNS): 1.4 µM | GI50 (UACC-257 melanoma): 2.15 µM | TGI (UACC-257 melanoma): 7.7 µM

CCOC(=O)CC1(c2cccc3ccccc23)OC(=O)c2ccccc21 (centres undefined)
TGI (A549 NSCLC): > 100 µM | TGI (CCRF-CEM leukemia): > 100 µM | TGI (HT29 colon): > 100 µM | TGI (MOLT-4 leukemia): 82.4 µM | TGI (NCI-H23 lung): 69.2 µM | TGI (OVCAR-8 ovarian): > 100 µM | TGI (SF-295 CNS): > 100 µM | TGI (SK-MEL-5 melanoma): 63.8 µM | TGI (U251 CNS): > 100 µM | TGI (UACC-257 melanoma): > 100 µM

C=C(OC1C(C)=C2C(C1OC(=O)CCCCCCC)C(C)(OC(C)=O)CC(OC(=O)CCC)C1(O)C2OC(=O)C1(C)O)/C(C)=C/C (centres undefined)
GI50 (A549 NSCLC): < 0.0001 µM | TGI (A549 NSCLC): 6.16 µM | GI50 (CCRF-CEM leukemia): < 0.0001 µM | TGI (CCRF-CEM leukemia): 6.24 µM | GI50 (HT29 colon): < 0.0001 µM | TGI (HT29 colon): 1.8 µM | GI50 (MOLT-4 leukemia): 0.000402 µM | TGI (MOLT-4 leukemia): 0.177 µM | GI50 (NCI-H23 lung): < 0.0001 µM | TGI (NCI-H23 lung): 3.82 µM | GI50 (OVCAR-8 ovarian): 0.000243 µM | TGI (OVCAR-8 ovarian): 5.98 µM | GI50 (SF-295 CNS): < 0.0001 µM | TGI (SF-295 CNS): 3.22 µM | GI50 (SK-MEL-5 melanoma): < 0.0001 µM | GI50 (U251 CNS): < 0.0001 µM | TGI (U251 CNS): 1.73 µM | GI50 (UACC-257 melanoma): 0.000269 µM | TGI (UACC-257 melanoma): 11.9 µM
